Measurements taken from ChEMBL document CHEMBL6121040, “Synthesis and biological assessment of BUB1B inhibitors for the treatment of clear cell renal cell carcinoma” (Eur J Med Chem, 2025).
Blank lines part the entries; values can stand above or below the compound they belong to. Calls of active or inactive are those of the source. No cut-off for these calls is given here.

Experiments:
[1] = test system: CAKI-1; test: Cytotoxicity against human CAKI-1 cells assessed as cell viability at 10 uM incubated for 1 day by MTT assay relative to control; type: functional; conditions: CAKI-1, 24 h, read-out: Activity
[2] = molecular target: T1, Mitotic checkpoint serine/threonine-protein kinase BUB1 beta (Homo sapiens, UniProt O60566); test: Destabilization of BUB1B in human CAKI-1 cells assessed as reduction in BUB1B protein level at 20 uM preincubated for 1 hrs followed by incubation under 45 degreeC for 3 mins by CETSA analysis (reference value: 1); type: cell-based; conditions: time 63.0 min
[3] = Cytotoxicity against human HaCaT cells assessed as cell viability at 1 uM incubated for 1 day relative to control; type: toxicity, cell-based; conditions: read-out: Activity
[4] = Cytotoxicity against human MRC5 cells assessed as cell viability at 5 uM incubated for 1 day relative to control; type: toxicity, cell-based; conditions: read-out: Activity
[5] = test system: CAKI-1; test: Cytotoxicity against human CAKI-1 cells assessed as cell viability at 10 uM incubated for 3 day by MTT assay relative to control; type: functional; conditions: CAKI-1, 72 h, read-out: Activity
[6] = test system: CAKI-1; test: Induction of apoptosis in human CAKI-1 cells assessed as increase in cleaved PARP level by measuring fold change at 10 uM incubated for 1 day by Western blot analysis (reference value: 1); type: functional
[7] = Cytotoxicity against human MRC5 cells assessed as cell viability at 1 uM incubated for 1 day relative to control; type: toxicity, cell-based; conditions: read-out: Activity
[8] = test system: CAKI-1; test: Induction of apoptosis in human CAKI-1 cells assessed as decrease in Bcl-2 protein level by measuring fold change at IC50 concentration incubated for 1 day by Western blot analysis (reference value: 1); type: functional
[9] = test system: CAKI-1; test: Cytotoxicity against human CAKI-1 cells assessed as reduction in cell viability incubated for 1 day by MTT assay; type: functional, cell-based; conditions: CAKI-1, 24 h
[10] = test system: CAKI-1; test: Cytotoxicity against human CAKI-1 cells assessed as reduction in cell viability incubated for 3 days by MTT assay; type: functional, cell-based; conditions: for IC50: CAKI-1, 72 h; for Activity: time 3.0 day
[11] = molecular target: T1, Mitotic checkpoint serine/threonine-protein kinase BUB1 beta; test: Inhibition of recombinant BUB1B (unknown origin) incubated for 60 mins in presence of [gamma-33P]-ATP by microplate scintillation counter analysis
[12] = Cytotoxicity against human HaCaT cells assessed as cell viability at 5 uM incubated for 1 day relative to control; type: toxicity, cell-based; conditions: read-out: Activity
[13] = test system: CAKI-1; test: Induction of apoptosis in human CAKI-1 cells assessed as increase in cleaved caspase-3 protein level at 10 uM incubated for 1 day by Western blot analysis; type: functional, cell-based
[14] = test system: CAKI-1; test: Induction of apoptosis in human CAKI-1 cells assessed as increase in cleaved caspase-8 protein level at 10 uM incubated for 1 day by Western blot analysis; type: functional, cell-based
[15] = test system: CAKI-1; test: Cytotoxicity against human CAKI-1 cells assessed as necrotic cell death incubated for 3 days by LDH assay; type: functional, cell-based; conditions: CAKI-1, 72 h
[16] = Downregulation of BUB1B protein expression level in human CAKI-1 cells at IC50 concentration incubated for 1 day by Western blot analysis (Rvb =1); type: functional
[17] = test system: CAKI-1; test: Induction of apoptosis in human CAKI-1 cells assessed as increase in cleaved PARP level by measuring fold change at IC50 concentration incubated for 1 day by Western blot analysis (reference value: 1); type: functional
[18] = Downregulation of BUB1B protein expression level in human CAKI-1 cells at 10 uM incubated for 1 day by Western blot analysis (Rvb =1); type: functional
[19] = test system: CAKI-1; test: Induction of apoptosis in human CAKI-1 cells assessed as decrease in Bcl-2 protein level by measuring fold change at 10 uM incubated for 1 day by Western blot analysis (reference value: 1); type: functional
[20] = test system: CAKI-1; test: Induction of apoptosis in human CAKI-1 cells assessed as increase in cleaved caspase-9 protein level at 10 uM incubated for 1 day by Western blot analysis; type: functional, cell-based
[21] = test system: CAKI-1; test: Cytotoxicity against human CAKI-1 cells assessed as reduction in cell viability at 10 uM by MTT assay; type: functional, cell-based; conditions: time 1-3 day
[22] = test system: CAKI-1; test: Cytotoxicity against human CAKI-1 cells assessed as necrotic cell death incubated for 1 day by LDH assay; type: functional, cell-based; conditions: CAKI-1, 24 h

T1 sequence (O60566 whole entry): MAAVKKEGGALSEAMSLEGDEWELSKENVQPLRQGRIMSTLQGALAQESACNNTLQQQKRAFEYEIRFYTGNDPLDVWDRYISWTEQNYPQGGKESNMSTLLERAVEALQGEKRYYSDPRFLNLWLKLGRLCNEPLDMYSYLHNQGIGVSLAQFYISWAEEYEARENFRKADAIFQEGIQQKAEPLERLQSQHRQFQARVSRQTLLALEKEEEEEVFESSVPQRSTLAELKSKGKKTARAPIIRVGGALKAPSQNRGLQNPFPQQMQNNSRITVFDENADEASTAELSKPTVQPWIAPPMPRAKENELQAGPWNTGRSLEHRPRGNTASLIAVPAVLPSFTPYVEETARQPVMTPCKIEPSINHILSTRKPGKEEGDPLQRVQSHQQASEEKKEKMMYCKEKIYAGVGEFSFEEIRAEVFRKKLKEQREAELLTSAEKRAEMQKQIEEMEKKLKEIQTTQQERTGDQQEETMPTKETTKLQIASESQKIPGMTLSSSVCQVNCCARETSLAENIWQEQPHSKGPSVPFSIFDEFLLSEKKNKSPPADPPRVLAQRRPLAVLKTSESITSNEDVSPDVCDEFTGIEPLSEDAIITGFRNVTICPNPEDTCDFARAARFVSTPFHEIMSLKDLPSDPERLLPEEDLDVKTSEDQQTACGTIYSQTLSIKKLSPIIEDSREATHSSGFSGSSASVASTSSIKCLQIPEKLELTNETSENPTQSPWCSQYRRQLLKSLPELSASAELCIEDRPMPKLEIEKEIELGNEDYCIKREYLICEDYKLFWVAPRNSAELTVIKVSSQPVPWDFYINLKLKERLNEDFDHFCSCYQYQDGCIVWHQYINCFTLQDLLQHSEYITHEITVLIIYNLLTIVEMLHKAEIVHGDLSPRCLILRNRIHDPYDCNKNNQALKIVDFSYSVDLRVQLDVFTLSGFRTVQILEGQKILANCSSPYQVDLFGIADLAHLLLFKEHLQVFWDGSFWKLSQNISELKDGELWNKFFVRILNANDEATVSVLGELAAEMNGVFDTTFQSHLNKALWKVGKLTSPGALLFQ

Compound: COc1ccccc1NC(=O)N1CCN(c2ccc(Nc3ncc(C)c(Nc4cccc(S(=O)(=O)NC(C)(C)C)c4)n3)cc2)CC1
viability at 10 µM [1]: 48.4%

Compound: COc1ccc(S(=O)(=O)N2CCN(c3ccc(Nc4ncc(C)c(Nc5cccc(S(=O)(=O)NC(C)(C)C)c5)n4)cc3)CC2)cc1OC
viability at 10 µM [1]: 73.8%

Compound: Cc1ccc(Nc2ncc(C)c(Nc3cccc(S(=O)(=O)NC(C)(C)C)c3)n2)cc1Nc1nc(-c2cccnc2)cs1
viability at 10 µM [1]: 43.5%

Compound: C#CCN1CCN(c2ccc(Nc3ncc(C)c(Nc4cccc(S(=O)(=O)NC(C)(C)C)c4)n3)cc2)CC1
viability at 10 µM [1]: 41.2%

Compound: COc1cc(Nc2ncc(C)c(Nc3cccc(S(=O)(=O)NC4CCC4)c3)n2)cc(OC)c1OC
viability at 10 µM [1]: 33%

Compound: Cc1cnc(Nc2ccc(OCc3cccc(F)c3)c(Cl)c2)nc1Nc1cccc(S(=O)(=O)NC(C)(C)C)c1
viability at 10 µM [1]: 96.1%

Compound: Cc1cnc(Nc2cccc(S(=O)(=O)NC(C)(C)C)c2)nc1Nc1cccc(S(=O)(=O)NC(C)(C)C)c1
viability at 10 µM [1]: 64.7%

Compound: COc1cc(Nc2ncc(C)c(Nc3ccc(N4CCN(C)CC4)cc3)n2)cc(OC)c1OC
viability at 10 µM [1]: 39.9%

Compound: Cc1ccc(Nc2ncc(C)c(Nc3cccc(S(=O)(=O)NC(C)(C)C)c3)n2)cc1Nc1nccc(-c2cccnc2)n1
viability at 10 µM [1]: 77%

fold change (FC) [2]: 0.65 | IC50 [11]: 9.67 µM
Compound: COc1cc(Nc2ncc(C)c(Nc3cccc(S(=O)(=O)N4CCOCC4)c3)n2)cc(OC)c1OC
viability at 24 h, 1 µM [3]: 105% | viability at 24 h, 5 µM [4]: 70.6% | viability at 10 µM [1]: 35.8% | viability at 10 µM [5]: 38.5% | fold change (FC) [6]: 10.69 | viability at 24 h, 1 µM [7]: 89.2% | fold change (FC) [8]: 0.5 | IC50 [9]: 1.83 µM | IC50 [10]: 2.9 µM | Activity [10]: Dose-dependent-effect | viability at 24 h, 5 µM [12]: 75.3% | Activity [13]: Active | Activity [14]: Active | EC50 [15]: 41.2 µM | fold change (FC) [16]: 0.22 | fold change (FC) [17]: 3.76 | fold change (FC) [18]: 0.12 | fold change (FC) [19]: 0.64 | Activity [20]: Active

Compound: Cc1cnc(Nc2ccc(N3CCN(C(=O)N(C)C)CC3)cc2)nc1Nc1cccc(S(=O)(=O)NC(C)(C)C)c1
viability at 10 µM [1]: 36.2%

Compound: Cc1cnc(Nc2cccc(S(=O)(=O)N3CCOCC3)c2)nc1Nc1cccc(S(=O)(=O)NC(C)(C)C)c1
viability at 10 µM [1]: 60.6%

Compound: COc1cc(Nc2ncc(C)c(Nc3cccc(S(=O)(=O)N4CCOCC4)c3)n2)cc(OC)c1
viability at 10 µM [1]: 45.4%

Compound: Cc1cnc(Nc2ccc(N3CCN(C(=O)Nc4ccccc4C(F)(F)F)CC3)cc2)nc1Nc1cccc(S(=O)(=O)NC(C)(C)C)c1
viability at 10 µM [1]: 39.7%

Compound: Cc1cnc(Nc2ccc(N3CCN(C(=O)c4cccc(F)c4)CC3)cc2)nc1Nc1cccc(S(=O)(=O)NC(C)(C)C)c1
viability at 10 µM [1]: 37.3%

Compound: Cc1cnc(Nc2ccc(Oc3ccc(Cl)cc3)nc2)nc1Nc1cccc(S(=O)(=O)NC(C)(C)C)c1
viability at 10 µM [1]: 87.7%

fold change (FC) [2]: 1.33 | IC50 [11]: > 100 µM
Compound: COc1cnccc1Nc1nc(-c2nn(Cc3c(F)cc(OCCO)cc3F)c3ccccc23)ncc1OC
viability at 10 µM [1]: 57.8% | viability at 10 µM [5]: 49.7% | fold change (FC) [6]: 1.23 | fold change (FC) [8]: 0.62 | IC50 [9]: 24.4 µM | IC50 [10]: 10.4 µM | Activity [10]: Dose-dependent-effect | Activity [13]: inactive | Activity [14]: inactive | Activity [21]: Time-dependent-effect | EC50 [15]: 15.9 µM | fold change (FC) [16]: 0.65 | fold change (FC) [17]: 2.89 | fold change (FC) [18]: 0.73 | fold change (FC) [19]: 1.03 | Activity [20]: inactive

Compound: COc1ccc(Nc2ncc(C)c(Nc3cccc(S(=O)(=O)NC(C)(C)C)c3)n2)cc1OC
viability at 10 µM [1]: 36.6%

Compound: COc1cc(Nc2ncc(C)c(Nc3cccc(S(=O)(=O)NC4CCC4)c3)n2)cc(OC)c1
viability at 10 µM [1]: 42%

fold change (FC) [2]: 2.19 | IC50 [11]: 67.3 µM
Compound: Cc1cnc(Nc2ccc(N3CCN(C)CC3)cc2)nc1Nc1cccc(S(=O)(=O)NC(C)(C)C)c1
viability at 24 h, 1 µM [3]: 76.4% | viability at 24 h, 5 µM [4]: 38.8% | viability at 10 µM [1]: 43.6% | viability at 10 µM [5]: 18.9% | fold change (FC) [6]: 24.35 | viability at 24 h, 1 µM [7]: 107% | fold change (FC) [8]: 0.62 | IC50 [9]: 1.5 µM | IC50 [10]: 1.1 µM | Activity [10]: Dose-dependent-effect | viability at 24 h, 5 µM [12]: 39.4% | Activity [13]: Active | Activity [14]: Active | EC50 [15]: 6.6 µM | fold change (FC) [16]: 0.14 | fold change (FC) [17]: 2.65 | IC50 [22]: 23.9 µM | fold change (FC) [18]: 0.02 | fold change (FC) [19]: 0.28 | Activity [20]: Active
